Assay results reported in ChEMBL document CHEMBL1133283, “Arylsulfonyl-N,N-diethyl-dithiocarbamates: a novel class of antitumor agents” (Bioorg Med Chem Lett, 2000).

How the values were obtained:
Carbonic anhydrase 2 = Carbonic anhydrase 2 (Homo sapiens, UniProt P00918); experiment: Binding affinity of compound against human Carbonic anhydrase II
A549 = experiment: In vitro growth inhibition of compound was determined against A549/ATCC cell lines of non-small cell lung cancer; type: functional; settings: Homo sapiens
786-0 = experiment: In vitro growth inhibition of compound was determined against […] cell lines of Renal cancer; type: functional; settings: Homo sapiens
BT-549 = experiment: In vitro growth inhibition of compound was determined against BT-549 cell lines of Breast cancer; type: functional; settings: Homo sapiens
COLO 205 = experiment: In vitro growth inhibition of compound was determined against COLO-205 cell lines of colon cancer; type: functional; settings: Homo sapiens
CCRF-CEM = experiment: In vitro growth inhibition of compound was determined against CCRF-CEM cell lines of Leukemia; type: functional; settings: Homo sapiens
CAKI-1 = experiment: In vitro growth inhibition of compound was determined against CAKI-1 cell lines of Renal cancer; type: functional; settings: Homo sapiens
DU-145 = experiment: In vitro growth inhibition of compound was determined against DU-145 cell lines of Prostate cancer; type: functional; settings: Homo sapiens
HCT-15 = experiment: In vitro growth inhibition of compound was determined against HCT-15 cell lines of colon cancer; type: functional; settings: Homo sapiens
HOP-92 = experiment: In vitro growth inhibition of compound was determined against HOP-92 cell lines of non-small cell lung cancer; type: functional; settings: Homo sapiens
HL-60 = experiment: In vitro growth inhibition of compound was determined against HL-60(TB) cell lines of Leukemia; type: functional; settings: Homo sapiens
HCT-116 = experiment: In vitro growth inhibition of compound was determined against HCT116 cell lines of colon cancer; type: functional; settings: Homo sapiens
HT-29 = experiment: In vitro growth inhibition of compound was determined against HT-29 cell lines of colon cancer; type: functional; settings: Homo sapiens
HCC 2998 = experiment: In vitro growth inhibition of compound was determined against HCC2998 cell lines of colon cancer; type: functional; settings: Homo sapiens
Hs-578T = experiment: In vitro growth inhibition of compound was determined against Hs 578.T cell lines of Breast cancer; type: functional; settings: Homo sapiens
IGROV-1 = experiment: In vitro growth inhibition of compound was determined against IGROVI cell lines of Ovarian cancer; type: functional; settings: Homo sapiens
K562 = experiment: In vitro growth inhibition of compound was determined against K-562 cell lines of Leukemia; type: functional; settings: Homo sapiens
KM12 = experiment: In vitro growth inhibition of compound was determined against KM12 cell lines of colon cancer; type: functional; settings: Homo sapiens
MOLT-4 = experiment: In vitro growth inhibition of compound was determined against MOLT-4 cell lines of Leukemia; type: functional; settings: Homo sapiens
LOX IMVI = experiment: In vitro growth inhibition of compound was determined against LOX IMVI cell lines of Melanoma; type: functional; settings: Homo sapiens
MDA-MB-435 = experiment: In vitro growth inhibition of compound was determined against MDA-MB-435 cell lines of Breast cancer; type: functional; settings: Homo sapiens
MDA-MB-231 = experiment: In vitro growth inhibition of compound was determined against MDA-MB-231/ATCC cell lines of Breast cancer; type: functional; settings: Homo sapiens
MDA-N = experiment: In vitro growth inhibition of compound was determined against MDA-Ncell lines of Breast cancer; type: functional; settings: Homo sapiens
M14 = experiment: In vitro growth inhibition of compound was determined against M14 cell lines of Melanoma; type: functional; settings: Homo sapiens
Malme-3M = experiment: In vitro growth inhibition of compound was determined against MALME-3M cell lines of Melanoma; type: functional; settings: Homo sapiens
MCF7 = experiment: In vitro growth inhibition of compound was determined against MCF-7 cell lines of Breast cancer; type: functional; settings: Homo sapiens
NCI-H522 = experiment: In vitro growth inhibition of compound was determined against NCI-H522 cell lines of non-small cell lung cancer; type: functional; settings: Homo sapiens
NCI-H226 = experiment: In vitro growth inhibition of compound was determined against NCI-H226 cell lines of non-small cell lung cancer; type: functional; settings: Homo sapiens
NCI/ADR-RES = experiment: In vitro growth inhibition of compound was determined against NCI/ADR-RES cell lines of Breast cancer; type: functional; settings: Homo sapiens
OVCAR-3 = experiment: In vitro growth inhibition of compound was determined against OVCAR-3 cell lines of Ovarian cancer; type: functional; settings: Homo sapiens
OVCAR-8 = experiment: In vitro growth inhibition of compound was determined against OVCAR-8 cell lines of Ovarian cancer; type: functional; settings: Homo sapiens
OVCAR-4 = experiment: In vitro growth inhibition of compound was determined against OVCAR-4 cell lines of Ovarian cancer; type: functional; settings: Homo sapiens
PC-3 = experiment: In vitro growth inhibition of compound was determined against PC-3 cell lines of Prostate cancer; type: functional; settings: Homo sapiens
RXF 393 = experiment: In vitro growth inhibition of compound was determined against RXF393 cell lines of Renal cancer; type: functional; settings: Homo sapiens
RPMI-8226 = experiment: In vitro growth inhibition of compound was determined against RPMI-8226 cell lines of Leukemia; type: functional; settings: Homo sapiens
SF-268 = experiment: In vitro growth inhibition of compound was determined against SF-268 cell lines of CNS cancer; type: functional; settings: Homo sapiens
SW-620 = experiment: In vitro growth inhibition of compound was determined against SW-620 cell lines of colon cancer; type: functional; settings: Homo sapiens
SR = experiment: In vitro growth inhibition of compound was determined against SR cell lines of Leukemia; type: functional; settings: Homo sapiens
SN12C = experiment: In vitro growth inhibition of compound was determined against SN12C cell lines of Renal cancer; type: functional; settings: Homo sapiens
SF-295 = experiment: In vitro growth inhibition of compound was determined against SF-295 cell lines of CNS cancer; type: functional; settings: Homo sapiens
SNB-75 = experiment: In vitro growth inhibition of compound was determined against SNB-75 cell lines of CNS cancer; type: functional; settings: Homo sapiens
SK-MEL-28 = experiment: In vitro growth inhibition of compound was determined against SK-MEL-28 cell lines of Melanoma; type: functional; settings: Homo sapiens
SK-MEL-5 = experiment: In vitro growth inhibition of compound was determined against SK-MEL-5 cell lines of Melanoma; type: functional; settings: Homo sapiens
TK-10 = experiment: In vitro growth inhibition of compound was determined against TK-10 cell lines of Renal cancer; type: functional; settings: Homo sapiens
UACC-257 = experiment: In vitro growth inhibition of compound was determined against UACC-257 cell lines of Melanoma; type: functional; settings: Homo sapiens
UO-31 = experiment: In vitro growth inhibition of compound was determined against UO-31 cell lines of Renal cancer; type: functional; settings: Homo sapiens
U-251 = experiment: In vitro growth inhibition of compound was determined against U251 cell lines of CNS cancer; type: functional; settings: Homo sapiens
ACHN = experiment: In vitro growth inhibition of compound was determined against ACHN cell lines of Renal cancer; type: functional; settings: Homo sapiens
HOP-62 = experiment: In vitro growth inhibition of compound was determined against HOP-62 cell lines of non-small cell lung cancer; type: functional; settings: Homo sapiens

Compound `NS(=O)(=O)c1ccc(CNSC(=S)N2CCOCC2)cc1` has a Ki (Carbonic anhydrase 2) of 0.035 µM.
`NS(=O)(=O)c1ccc(CCNSC(=S)N2CCOCC2)cc1` showed a Ki (Carbonic anhydrase 2) of 0.035 µM.
In the case of `CCN(CC)C(=S)SS(=O)(=O)c1ccccc1[N+](=O)[O-]`, the GI50 (A549) is reported as 3 µM, the GI50 (786-0) is reported as 19 µM and the GI50 (BT-549) is reported as 26 µM. The GI50 (COLO 205) was 28 µM, the GI50 (CCRF-CEM) was 2.5 µM and the GI50 (CAKI-1) was 17 µM. The GI50 (DU-145) was 19 µM, the GI50 (HCT-15) was 34 µM and the GI50 (HOP-92) was 14 µM. The GI50 (HL-60) was 0.2 µM, the GI50 (HCT-116) was 15 µM and the GI50 (HT-29) was 14 µM. It also gave a GI50 (HCC 2998) of 24 µM, a GI50 (Hs-578T) of 29 µM and a GI50 (IGROV-1) of 0.5 µM. For the same compound, the GI50 (K562) was 11 µM, the GI50 (KM12) was 12 µM and the GI50 (MOLT-4) was 0.4 µM. The GI50 (LOX IMVI) was 16 µM, the GI50 (MDA-MB-435) was 18 µM and the GI50 (MDA-MB-231) was 16 µM. For the same compound, the GI50 (MDA-N) was 19 µM, the GI50 (M14) was 11 µM and the GI50 (Malme-3M) was 10 µM. For the same compound, the GI50 (MCF7) was 25 µM, the GI50 (NCI-H522) was 0.08 µM and the GI50 (NCI-H226) was 36 µM. It also gave a GI50 (NCI/ADR-RES) of 30 µM, a GI50 (OVCAR-3) of 22 µM and a GI50 (OVCAR-8) of 18 µM. It also gave a GI50 (OVCAR-4) of 23 µM, a GI50 (PC-3) of 54 µM and a GI50 (RXF 393) of 15 µM. For the same compound, the GI50 (RPMI-8226) was 15 µM, the GI50 (SF-268) was 26 µM and the GI50 (SW-620) was 15 µM. For the same compound, the GI50 (SR) was 0.3 µM, the GI50 (SN12C) was 18 µM and the GI50 (SF-295) was 32 µM. It also gave a GI50 (SNB-75) of 76 µM, a GI50 (SK-MEL-28) of 13 µM and a GI50 (SK-MEL-5) of 3 µM. The GI50 (TK-10) was 29 µM, the GI50 (UACC-257) was 17 µM and the GI50 (UO-31) was 13 µM. It also gave a GI50 (U-251) of 13 µM, a GI50 (ACHN) of 24 µM and a GI50 (HOP-62) of 20 µM.
`NS(=O)(=O)c1ccc(NSC(=S)N2CCOCC2)cc1` gave a Ki (Carbonic anhydrase 2) of 0.035 µM.
